According to PubChem BioAssay (NCI):
Values joined by “and” are separate entries in the source; they are usually repeats but may differ in a detail not shown here. Identical values can stand only once.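 96-well plates; 48 h exposure; 5 concentrations. Endpoints by linear interpolation between flanking doses. Not reached: highest tested concentration assigned. GI50: concentration for 50% inhibition of growth. Definition used: TGI = concentration required for complete inhibition of growth.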 Where a SMILES comes first, the peptide text is derived from it. The star is where a group is joined. Boc = CC(C)(C)OC(=O)*

Tests used:
Assay in all cases: growth of human tumour cells (NCI), 48 h
BT-549 breast = system: BT-549 breast
NCI-H522 lung = system: NCI-H522 lung
SW-620 colon = system: SW-620 colon
NCI-H460 lung = system: NCI-H460 lung
SK-MEL-5 melanoma = system: SK-MEL-5 melanoma
UO-31 renal = system: UO-31 renal
DU-145 prostate = system: DU-145 prostate
SNB-75 CNS = system: SNB-75 CNS

| SMILES | GI50 (BT-549 breast) | TGI (BT-549 breast) [µM] | GI50 (NCI-H522 lung) | TGI (NCI-H522 lung) [µM] | GI50 (SW-620 colon) | TGI (SW-620 colon) | GI50 (NCI-H460 lung) | TGI (NCI-H460 lung) [µM] | GI50 (SK-MEL-5 melanoma) [µM] | TGI (SK-MEL-5 melanoma) [µM] | GI50 (UO-31 renal) [µM] | TGI (UO-31 renal) [µM] | GI50 (DU-145 prostate) | TGI (DU-145 prostate) [µM] | GI50 (SNB-75 CNS) | TGI (SNB-75 CNS) [µM] |
| --- | --- | --- | --- | --- | --- | --- | --- | --- | --- | --- | --- | --- | --- | --- | --- | --- |
| CC1CCN(C(=O)OCc2nc3nc(Cl)nc(N4CCOCC4)c3[nH]2)CC1 | 1.25 µM | 3.07 | 1.08 µM | 3.13 | 0.551 µM | 2.07 µM | 1.38 µM | 2.99 | 1.74 | 3.14 | 0.692 | 2.05 | 1.14 µM | 2.35 | 1.06 µM | 2.29 |
| CN(C)CCC(=O)C(=Cc1ccc(O)cc1)C(=O)CCN(C)C | > 100 µM | > 100 | 16.4 µM | 38.9 | 67.2 µM | > 100 µM | > 100 µM | > 100 | > 100 | > 100 | 25.2 | 69.8 | > 100 µM | > 100 | > 100 µM | > 100 |
| CCCCCCCN=C(N)c1ccc(N2CCN(c3ccc(C(N)=NCCCCCCC)cc3)CC2)cc1 | – | – | – | 0.0351 | 0.259 µM | > 31.7 µM | – | > 80.8 | – | 0.0141 | 0.781 | > 100 | 0.296 µM | 21.8 | 2.75 µM | 7.67 |
| COC(=O)C(C)NC(=O)C(CCSC)NC(=O)C(Cc1ccccc1)NC(=O)OC(C)(C)C (stereo not drawn) (Boc-Phe-Met-Ala-OMe; configuration not given here) | 18.3 µg/mL | > 100 | 13.1 µg/mL | – | 18.2 µg/mL | 37.2 µg/mL and > 100 µM | 40.6 µg/mL | > 100 | – | > 100 | – | > 100 | 43.7 µg/mL | > 100 | 99.7 µg/mL | > 100 |
| COc1ccc(C2=C(c3ccc(OC)cc3)C(=O)N3CCCC3C2)cc1 (stereo not drawn) | 17.1 µM | > 89.8 | 14.1 µM | 96.8 | 15.4 µM | > 100 µM | 1.81 µM | > 40.9 | 10.1 | 84.3 | 19.7 | > 100 | 13.5 µM | > 100 | 15.6 µM | > 72.7 |
| Cn1cc(-c2csc(-c3c[nH]c4ccc(Br)cc34)n2)c2cnccc21 | 26.3 µM | > 100 | – | – | 1.81 µM | 3.46 µM | 1.92 µM | 3.74 | 1.88 | 4.25 | – | – | 2.25 µM | 5.62 | – | – |
| O=C1c2cccc3cccc(c23)C(=O)N1CCCCCN1CCN(CCCCCOc2ccc(-c3nc4ccc(N5CCOCC5)cc4[nH]3)cc2)CC1 | 4.88 µM | 23.2 | > 49 µM | > 68.5 | 1.83 µM | 4.21 µM | 16.8 µM | 30.8 | 6.43 | 19.9 | 3.47 | 34.7 | 14.7 µM | 27.8 | 18.3 µM | 34.6 |
| S=c1[nH]c2c(Cl)c(Cl)c(Cl)c(Cl)c2[nH]1 | – | 52.4 | – | 3.71 | – | 49.2 µM | – | 40.6 | – | 37.2 | – | 43.2 | – | > 100 | – | – |
| CN(C)c1ncnc2c1ncn2CCn1cnc2c(N(C)C)ncnc21 | – | > 100 | – | > 100 | – | > 100 µM | – | > 100 | – | > 100 | – | > 100 | – | > 100 | – | > 100 |
| CCc1c(Cl)c(C)cc(O)c1Cl | – | 42.8 | – | > 100 | – | 47.9 µM | – | > 100 | – | 28.6 | – | 56.8 | – | > 100 | – | > 100 |
| COC(=O)c1ccc(-c2c(C#N)[n+](=O)c3cc(Cl)c(Cl)cc3n2[O-])cc1 | 16.8 µM | 34 | 4.12 µM | > 100 | 17.8 µM | 45.4 µM | 18.6 µM | 44.7 | 22 | 47.7 | 26.3 | 67.3 | 20.2 µM | 40.9 | 20.2 µM | 39.8 |
| CCOC(=O)/C=C/c1ccc(C#Cc2ccccc2)cc1 | – | – | – | – | > 100 µM | > 100 µM | 66.1 µM | > 100 | 68.5 | > 100 | 38.4 | > 100 | – | – | 31.8 µM | 97.1 |
| O=C1c2cc3c(cc2-c2c1c1cc(Cl)c(Cl)cc1c(=O)n2C[C@H](O)CO)OCO3 | < 0.01 µM | 0.455 | < 0.01 µM | 0.122 | < 0.01 µM | 2.08 µM | < 0.01 µM | 0.0268 | < 0.01 | 0.0134 | – | – | < 0.01 µM | 1.8 | < 0.01 µM | 0.0786 |
| COc1ccc(-c2nnc(N3CCN(C(=O)CN4CCN(c5ccccc5)CC4)CC3)nc2-c2ccc(OC)cc2)cc1 | – | – | 7.44 µM | > 100 | 5.26 µM | > 100 µM | 4.2 µM | > 100 | 2.99 | > 100 | 1.91 | > 100 | 13.4 µM | > 100 | 14.4 µM | 48.7 |
| Cc1cc(N(CCCNc2ccnc3cc(Cl)ccc23)Cc2ccc3c(c2)OCO3)nc(N2CCOCC2)n1 | 0.334 µM | 23.5 | 0.185 µM | 0.477 | 0.306 µM | 38.2 µM | 0.318 µM | 14.1 | 0.169 | 0.309 | – | – | 0.353 µM | 53.8 | 0.204 µM | 0.626 |
| O=C(O)c1ccc(C(=O)O)c2c(C(=O)O)ccc(C(=O)O)c12 | – | – | – | > 100 | – | > 100 µM | – | > 100 | – | > 100 | – | > 100 | – | > 100 | – | > 100 |
| Oc1ccc(Nc2c3ccccc3nc3occ(Cl)c23)cc1 | 19.4 µM | > 100 | 2.37 µM | 8.32 | 4.71 µM | > 100 µM | 3.68 µM | 28.9 | 3.92 | 18.3 | 5.61 | 24.4 | 22.4 µM | > 100 | – | – |
| CN(C)CCSc1cc(-c2ccccc2)c2ccccc2n1 | – | 24.8 | – | 24.1 | – | 23.2 µM | – | – | – | 4.7 | – | 23 | – | 28.7 | – | – |
| COc1ccc(/C(=C\C=C(C#N)C#N)Sc2nc3ccccc3s2)cc1 | 6.51 µM | 17.5 | 14.6 µM | > 50 | 1.77 µM | > 50 µM | 11.7 µM | > 50 | 7.87 | 16.5 | 15.6 | > 50 | – | – | – | – |
